Measurements as given in PubChem BioAssay (NCI).
“And” between values parts separate entries of the source, which are not always exact repeats. Equal values may be shown once.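 Cells were grown in 96-well plates and exposed to each compound for 48 hours at five concentrations; endpoints were interpolated linearly between bracketing concentrations, or set to the highest concentration if not reached. GI50: concentration for 50% inhibition of growth. At the TGI there is no net growth.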

Assays:
Assay in all cases: NCI anticancer screen, dose series, 48 h
DU-145 prostate = test system: DU-145 prostate
UACC-62 melanoma = test system: UACC-62 melanoma
U251 CNS = test system: U251 CNS
CAKI-1 renal = test system: CAKI-1 renal
786-0 renal = test system: 786-0 renal
HCT-116 colon = test system: HCT-116 colon
SK-OV-3 ovarian = test system: SK-OV-3 ovarian
A498 renal = test system: A498 renal
MALME-3M melanoma = test system: MALME-3M melanoma
MDA-MB-231 breast = test system: MDA-MB-231 breast

## C[C@H]1COCCN1c1nc(-c2cnc(N)cc2C(F)F)nc(N2CCOCC2)n1
DU-145 prostate
  GI50: 285 nM
  TGI: > 100000 nM
UACC-62 melanoma
  GI50: 79.4 nM
  TGI: 401 nM
U251 CNS
  GI50: 368 nM
  TGI: > 100000 nM
CAKI-1 renal
  GI50: 102 nM
786-0 renal
  GI50: 181 nM
  TGI: 5150 nM
HCT-116 colon
  GI50: 233 nM
  TGI: > 100000 nM
SK-OV-3 ovarian
  GI50: 61.4 nM
  TGI: 412 nM
A498 renal
  GI50: 30.1 nM
  TGI: 164 nM
MALME-3M melanoma
  GI50: 104 nM
  TGI: 721 nM
MDA-MB-231 breast
  GI50: 177 nM
  TGI: 48500 nM

## COc1c(B(O)O)cccc1-c1nc2ccc3[nH]ncc3c2c2c1CCCC2
DU-145 prostate
  GI50: 2230 nM
  TGI: 25900 nM
UACC-62 melanoma
  GI50: 2710 nM
  TGI: 10200 nM
U251 CNS
  GI50: 2690 nM
  TGI: 18500 nM
CAKI-1 renal
  GI50: 17.1 nM
  TGI: 252 nM
786-0 renal
  GI50: 1200 nM
  TGI: 11900 nM
HCT-116 colon
  GI50: 473 nM
  TGI: > 96700 nM
SK-OV-3 ovarian
  GI50: 1190 nM
  TGI: 10400 nM
A498 renal
  GI50: 491 nM
  TGI: 3880 nM
MALME-3M melanoma
  GI50: 3390 nM
  TGI: 6860 nM
MDA-MB-231 breast
  GI50: 20.1 nM
  TGI: 25100 nM

## Cn1cc(C2=C(c3cc[nH]c3)C(=O)NC2=O)c2ccccc21
DU-145 prostate
  GI50: > 25000 nM
  TGI: > 25000 nM
UACC-62 melanoma
  GI50: > 25000 nM
  TGI: > 25000 nM
U251 CNS
  GI50: > 25000 nM
  TGI: > 25000 nM
CAKI-1 renal
  GI50: > 25000 nM
  TGI: > 25000 nM
786-0 renal
  GI50: > 25000 nM
  TGI: > 25000 nM
HCT-116 colon
  GI50: > 25000 nM
  TGI: > 25000 nM
SK-OV-3 ovarian
  GI50: > 23300 nM
  TGI: > 25000 nM
A498 renal
  GI50: 8980 nM
  TGI: > 25000 nM
MALME-3M melanoma
  GI50: > 25000 nM
  TGI: > 25000 nM
MDA-MB-231 breast
  GI50: > 25000 nM
  TGI: > 25000 nM

## COc1ccc(/C=C2\COc3ccc(O)c(O)c3C2=O)cc1OC
DU-145 prostate
  GI50: 2220 nM
  TGI: 11400 nM
UACC-62 melanoma
  GI50: 1190 nM
  TGI: 2860 nM
U251 CNS
  GI50: 991 nM
  TGI: 7200 nM
CAKI-1 renal
  GI50: 1220 nM
  TGI: 2980 nM
786-0 renal
  GI50: 1510 nM
  TGI: 3870 nM
HCT-116 colon
  GI50: 1470 nM
  TGI: 3610 nM
SK-OV-3 ovarian
  GI50: 3830 nM
  TGI: > 100000 nM
A498 renal
  GI50: 2470 nM
  TGI: 8280 nM
MALME-3M melanoma
  GI50: 1330 nM
  TGI: 3200 nM
MDA-MB-231 breast
  GI50: 1480 nM
  TGI: 5550 nM

## Cc1nn(Cc2ccccc2)cc1C(=O)Nc1sc2c(c1C(N)=O)CCC(=O)C2
DU-145 prostate
  GI50: 3730 nM
  TGI: > 100000 nM
UACC-62 melanoma
  GI50: 1590 nM
  TGI: 3400 nM
U251 CNS
  GI50: 2620 nM
  TGI: > 100000 nM
CAKI-1 renal
  GI50: 1420 nM
  TGI: 2920 nM
786-0 renal
  GI50: 3550 nM
  TGI: 28600 nM
HCT-116 colon
  GI50: 1280 nM
  TGI: 4330 nM
SK-OV-3 ovarian
  GI50: 2700 nM
  TGI: 9220 nM
A498 renal
  GI50: 3970 nM
  TGI: 28200 nM
MALME-3M melanoma
  GI50: 1890 nM
  TGI: 3790 nM
MDA-MB-231 breast
  GI50: 2000 nM
  TGI: 4860 nM

## CC(C)c1[nH]nc2c(NCc3ccc(-c4ccccn4)cc3)nc(SCCN)nc12
DU-145 prostate
  GI50: 38.9 nM and 41.6 nM
  TGI: 11800 nM
UACC-62 melanoma
  GI50: 19.1 nM
  TGI: 48.6 nM
U251 CNS
  GI50: 28 nM and 20.5 nM
  TGI: 11500 nM
CAKI-1 renal
  GI50: 2470 nM and 2840 nM
  TGI: 14800 nM
786-0 renal
  GI50: 143 nM and 327 nM
HCT-116 colon
  GI50: 23.3 nM and 19.6 nM
  TGI: 10600 nM
SK-OV-3 ovarian
  GI50: 43.3 nM and 27.6 nM
  TGI: 11400 nM
A498 renal
  GI50: 30.6 nM and 30.2 nM
  TGI: 82.6 nM and 87.6 nM
MALME-3M melanoma
  GI50: 16 nM
  TGI: 59.8 nM
MDA-MB-231 breast
  GI50: 4.92 nM
  TGI: 205 nM and 212 nM
